Structures are written as SMILES. pIC50: −log10 of the molar value. Where two headings read alike, the source gives them in different places.

The assay has as its target T1, human type 1 glycine transporter (GlyT1) (Homo sapiens, UniProt P48067).
T1 construct: T98G cells (glioma cells) expressing human type 1 glycine transporter (GlyT1) were used; endogenous in cells; host or cells: T98G cells (human glioma cells)
T1 sequence (P48067 1-706): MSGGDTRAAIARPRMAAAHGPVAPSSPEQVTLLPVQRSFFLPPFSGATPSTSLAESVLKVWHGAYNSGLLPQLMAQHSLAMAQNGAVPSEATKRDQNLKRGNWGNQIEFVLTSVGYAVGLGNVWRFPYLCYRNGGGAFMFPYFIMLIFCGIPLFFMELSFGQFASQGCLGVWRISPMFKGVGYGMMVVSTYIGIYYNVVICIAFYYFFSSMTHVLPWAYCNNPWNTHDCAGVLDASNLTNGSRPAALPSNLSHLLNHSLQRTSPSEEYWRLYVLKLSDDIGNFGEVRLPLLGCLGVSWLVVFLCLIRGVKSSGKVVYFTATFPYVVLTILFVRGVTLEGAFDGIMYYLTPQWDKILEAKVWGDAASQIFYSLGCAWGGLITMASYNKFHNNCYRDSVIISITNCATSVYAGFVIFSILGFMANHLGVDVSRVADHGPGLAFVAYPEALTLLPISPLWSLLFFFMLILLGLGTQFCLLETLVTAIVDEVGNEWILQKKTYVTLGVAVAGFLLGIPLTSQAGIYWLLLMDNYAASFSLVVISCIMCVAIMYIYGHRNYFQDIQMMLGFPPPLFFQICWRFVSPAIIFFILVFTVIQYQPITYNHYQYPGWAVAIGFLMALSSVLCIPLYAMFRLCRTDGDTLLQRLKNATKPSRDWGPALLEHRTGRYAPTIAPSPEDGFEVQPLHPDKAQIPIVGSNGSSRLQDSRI
As to the kind of experiment: Glycine uptake inhibition experiment ([3H] glycine uptake in T98G cells expressing GlyT1). The format is cell-based. How it is done: Glycine Uptake Inhibition Experiment
A glycine uptake experiment was conducted in accordance with the method published in Neuron, 8, 927-935, 1992. In the experiment, T98G cells (glioma cells) expressing human type 1 glycine transporter (GlyT1) were used. The T98G cells were seeded in a 96-well plate at 2.0×10^4 cells/well and cultured overnight in a CO2 incubator. The test substance was dissolved in a 100% DMSO solution and then dissolved in a 10 mM HEPES buffer solution (pH 7.4) containing 150 mM sodium chloride, 1 mM calcium chloride, 5 mM potassium chloride, 1 mM magnesium chloride, 10 mM glucose and 0.2% bovine serum albumin. After removing the cell culture medium, the test substance was subjected to a 10-min pretreatment. Subsequently, the test substance and [^3H] glycine (final concentration: 250 nM) were added to the cells and reaction was performed at room temperature for 15 minutes. After the end of the reaction, the extracellular fluid was aspirated with a manifold to remove excess labeled glycine present outside the cells, and then the cells were lysed with a 0.5 M aqueous sodium hydroxide solution. The glycine content in the cells was determined by measuring the radioactivity in the cell lysate with a liquid scintillation counter. Glycine uptake in the presence of 10 μM ALX5407 was defined as non-specific uptake, and the value calculated by subtracting the amount of the non-specific uptake from the total uptake in the absence of 10 μM ALX5407 was defined as specific uptake. In addition, glycine uptake inhibitory activity (IC50 value) was calculated from an inhibition curve at the concentrations of each test substance ranging from 10^−9 to 10^−5 M. It should be noted that ALX5407 is an HCl salt of N-[(3R)-3-([1,1′-biphenyl]-4-yloxy)-3-(4-fluorophenyl)propyl]-N-methylglycine.

One may read the pIC50 as the negative decadic logarithm of the IC50, by convention in mol/L. For `O=C1N(Cc2cncc(Cl)c2)c2ccc(F)c(C(O)C(F)F)c2C1(F)F` (single isomer, unassigned) [Compound 136], the pIC50 (glycine uptake inhibition) was 5.77.

As to `C[C@H](O)c1cccc2c1C(F)(F)C(=O)N2Cc1cc(F)ccn1` [Compound 97, 3,3-difluoro-1-[(4-fluoropyridin-2-yl)methyl]-4-[(1S)-1-hydroxyethyl]-1,3-dihydro-2H-indol-2-one], under “glycine uptake inhibition”, the pIC50 was 7.04.

Compound `CC(O)c1cccc2c1C(F)(F)C(=O)N2Cc1nc2ccccc2c(=O)n1C` (centres unmarked) [Compound 30, 2-{[3,3-difluoro-4-(1-hydroxyethyl)-2-oxo-2,3-dihydro-1H-indol-1-yl]methyl)-3-methylquinazolin-4(3H)-one] showed a pIC50 (glycine uptake inhibition) of 7.27. Compared with the last compound, the pIC50 is 0.23 log units higher.

Take `C[C@H](O)c1cccc2c1C(F)(F)C(=O)N2Cc1ccnc(-n2cncn2)c1` [Compound 69, 3,3-difluoro-4-[(1S)-1-hydroxyethyl]-1-{[2-(1H-1,2,4-triazol-1-yl)pyridin-4-yl]methyl}-1,3-dihydro-2H-indol-2-one]: under “glycine uptake inhibition”, the pIC50 was 7.35.

Consider `O=C1N(Cc2cncc(Cl)c2)c2ccc(F)c(C(O)C(F)(F)F)c2C1(F)F` (single isomer, unassigned) [Compound 49, 1-[(5-chloropyridin-3-yl)methyl]-3,3,5-trifluoro-4-(2,2,2-trifluoro-1-hydroxyethyl)-1,3-dihydro-2H-indol-2-one], for which, for the setting “glycine uptake inhibition”, the negative-log IC50 (pIC50) is 5.82.

`O=C1N(Cc2cncc(Cl)n2)c2cccc([C@@H](O)C(F)(F)F)c2C1(F)F` [Compound 47, 1-[(6-chloropyrazin-2-yl)methyl]-3,3-difluoro-4-[(1R)-2,2,2-trifluoro-1-hydroxyethyl]-1,3-dihydro-2H-indol-2-one] had a pIC50 (glycine uptake inhibition) of 7.40.

On to `O=C1N(Cc2cncc(Cl)c2)c2ccc(F)c(C(O)C(F)F)c2C1(F)F` (single isomer, unassigned) [Compound 135, 1-[(5-chloropyridin-3-yl)methyl]-4-(2,2-difluoro-1-hydroxyethyl)-3,3,5-trifluoro-1,3-dihydro-2H-indol-2-one], for which, under “glycine uptake inhibition”, the pIC50 was 7.24.

Regarding `C[C@H](O)c1cccc2c1C(F)(F)C(=O)N2Cc1ccc(Cl)nc1` [Compound 102, 1-[(6-chloropyridin-3-yl)methyl]-3,3-difluoro-4-[(1S)-1-hydroxyethyl]-1,3-dihydro-2H-indol-2-one], the pIC50 (glycine uptake inhibition) was 7.04.

On to `C[C@H](O)c1cccc2c1C(F)(F)C(=O)N2Cc1nc2ncccc2c(=O)n1C` [Compound 108, 2-({3,3-difluoro-4-[(1S)-1-hydroxyethyl]-2-oxo-2,3-dihydro-1H-indol-1-yl}methyl)-3-methylpyrido[2,3-d]pyrimidin-4(3H)-one], for which the negative-log IC50 (pIC50) (glycine uptake inhibition) is 6.62.

Where the note is “glycine uptake inhibition”, `C[C@H](O)c1cccc2c1C(F)(F)C(=O)N2Cc1cncc(-n2nccn2)c1` [Compound 84, 3,3-difluoro-4-[(1S)-1-hydroxyethyl]-1-{[5-(2H-1,2,3-triazol-2-yl)pyridin-3-yl]methyl}-1,3-dihydro-2H-indol-2-one] showed a pIC50 of 7.46.

On to `N#Cc1nc(CN2C(=O)C(F)(F)c3c(C(O)C(F)F)cccc32)ccc1Cl` (single isomer, unassigned) [Compound 271, 3-chloro-6-{[4-(2,2-difluoro-1-hydroxyethyl)-3,3-difluoro-2-oxo-2,3-dihydro-1H-indol-1-yl]methyl}pyridine-2-carbonitrile], for which the negative logarithm of the IC50 (pIC50) (table section whose head prints (μm)) was 8.26.

Compound `C[C@H](O)c1cccc2c1C(F)(F)C(=O)N2Cc1ccc(F)c(C#N)n1` [Compound 236, 6-({3,3-difluoro-4-[(1S)-1-hydroxyethyl]-2-oxo-2,3-dihydro-1H-indol-1-yl}methyl)-3-fluoropyiidine-2-carbonitrile] showed a pIC50 of 8.40.

In the case of `C[C@H](O)c1cccc2c1C(F)(F)C(=O)N2Cc1cnc(F)c(C#N)c1` [Compound 235, 5-({3,3-difluoro-4-[(1S)-1-hydroxyethyl]-2-oxo-2,3-dihydro-1H-indol-1-yl}methyl)-2-fluoropyridine-3-carbonitrile], the pIC50 is 7.64. Compared with the last compound, the pIC50 is 0.76 log units lower.

Compound `C[C@H](O)c1cccc2c1C(F)(F)C(=O)N2Cc1cccc(C(F)(F)F)n1` [Compound 67, 3,3-difluoro-4-[(1S)-1-hydroxyethyl]-1-{[6-(trifluoromethyl)pyridin-2-yl]methyl}-1,3-dihydro-2H-indol-2-one] had a pIC50 (glycine uptake inhibition) of 7.77.

As for `O=C1N(Cc2cc(F)ccn2)c2cccc(C(O)C(F)F)c2C1(F)F` (single isomer, unassigned) [Compound 154, 4-(2,2-difluoro-1-hydroxyethyl)-3,3-difluoro-1-[(4-fluoropyridin-2-yl)methyl]-1,3-dihydro-2H-indol-2-one], the pIC50 (glycine uptake inhibition) is 6.59.

`C[C@H](O)c1c(Cl)ccc2c1C(F)(F)C(=O)N2Cc1cncc(Cl)c1` [Compound 90, 5-chloro-1-[(5-chloropyridin-3-yl)methyl]-3,3-difluoro-4-[(1S)-1-hydroxyethyl]-1,3-dihydro-2H-indol-2-one]: the pIC50 (glycine uptake inhibition) was 7.34. Against the preceding compound, the pIC50 is 0.75 log units higher.

Compound `O=C1N(Cc2cncc(Cl)c2)c2c(F)ccc(C(O)C(F)F)c2C1(F)F` (single isomer, unassigned) [Compound 253, 1-[(5-chloropyridin-3-yl)methyl]-4-(2,2-difluoro-1-hydroxyethyl)-3,3,7-trifluoro-1,3-dihydro-2H-indol-2-one] gave a negative logarithm of the IC50 (pIC50) of 7.33.

For the setting “glycine uptake inhibition”, `C[C@H](O)c1cccc2c1C(F)(F)C(=O)N2Cc1ccc(F)nc1` [Compound 128, 3,3-difluoro-1-[(S-fluoropyridin-3-yl)methyl]-4-[(1S)-1-hydroxyethyl]-1,3-dihydro-2H-indol-2-one] gave a pIC50 of 7.28.

In turn, `C[C@H](O)c1cccc2c1C(F)(F)C(=O)N2Cc1ncccc1C#N` [Compound 213, 2-({3,3-difluoro-4-[(S)-1-hydroxyethyl]-2-oxo-2,3-dihydro-1-indol-1-yl}methyl)pyridine-3-carbonitrile] showed a pIC50 of 7.40.

The compound `CC(O)c1cccc2c1C(F)(F)C(=O)N2Cc1cncc(Cl)c1` (single isomer, unassigned) [Compound 6, 1-[(5-chloropyridin-3-yl)methyl]-3,3-difluoro-4-(1-hydroxyethyl)-1,3-dihydro-2H-indol-2-one] showed a pIC50 (glycine uptake inhibition) of 5.43.

For `C[C@H](O)c1cccc2c1C(F)(F)C(=O)N2Cc1ncc(C(F)(F)F)cc1Cl` [Compound 221, 1-{[3-chloro-5-(trifluoromethyl)pyridin-2-yl]methyl)-3,3-difluoro-4-[(1S)-1-hydroxyethyl]-1,3-dihydro-2H-indol-2-one], the pIC50 is 7.48.

Compound `C[C@H](O)c1cccc2c1C(F)(F)C(=O)N2Cc1ccc(C(F)(F)F)o1` [Compound 94, 3,3-difluoro-4-[(1S)-1-hydroxyethyl]-1-{[5-(trifluoromethyl)furan-2-yl]methyl}-1,3-dihydro-2H-indol-2-one] showed a pIC50 (glycine uptake inhibition) of 8.22.

`COc1cc(Cl)ncc1CN1C(=O)C(F)(F)c2c([C@H](C)O)cccc21` [Compound 231, 1-[(6-chloro-4-methoxypyridin-3-yl)methyl]-3,3-difluoro-4-[(1S)-1-hydroxyethyl]-1,3-dihydro-2H-indol-2-one] had a pIC50 of 6.85.

In turn, `N#Cc1cccc(CN2C(=O)C(F)(F)c3c(C(O)C(F)F)cccc32)n1` (single isomer, unassigned) [Compound 176, 6-{[4-(2,2-difluoro-1-hydroxyethyl)-3,3-difluoro-2-oxo-2,3-dihydro-1H-indol-1-yl]methyl}pyridine-2-carbonitrile] gave a pIC50 of 7.39.

For the setting “glycine uptake inhibition”, `O=C1N(Cc2cccc(Cl)n2)c2cccc(C(O)C(F)(F)F)c2C1(F)F` (centres unmarked) [Compound 2, 1-[(6-chloropyridin-2-yl)methyl]-3,3-difluoro-4-(2,2,2-trifluoro-1-hydroxyethyl)-1,3-dihydro-2H-indol-2-one] had a negative logarithm of the IC50 (pIC50) of 7.29.

Where the note is “glycine uptake inhibition”, `C[C@H](O)c1cccc2c1C(F)(F)C(=O)N2Cc1nc2ccccc2n(C)c1=O` [Compound 101, 3-({3,3-difluoro-4-[(1S)-1-hydroxyethyl]-2-oxo-2,3-dihydro-1H-indol-1-yl}methyl)-1-methylquinoxalin-2(1H)-one] had a pIC50 of 7.39.
